In article PMC9171722, “An Enzyme with High Catalytic Proficiency Utilizes Distal Site Substrate Binding Energy to Stabilize the Closed State but at the Expense of Substrate Inhibition” (ACS Catalysis, 2022):

Assays:
[1] = biological target: T1, β-phosphoglucomutase (βPGM WT) (Lactococcus lactis, UniProt P71447); set-up: gene pgmB
[2] = biological target: T2, β-phosphoglucomutase (βPGM R49K) (Lactococcus lactis, UniProt P71447, R49K); experiment: enzyme kinetics (kcat/Km), G6PDH coupled assay; […] NMR time course; type: biochemical
T2 construct: gene pgmB; full length

[3] = biological target: T3, β-phosphoglucomutase (βPGM R49A) (Lactococcus lactis, UniProt P71447, R49A); experiment: as above; type: biochemical
T3 construct: gene pgmB; full length

[4] = biological target: T1, β-phosphoglucomutase (βPGM WT); experiment: as above; type: biochemical; set-up: gene pgmB; full length

## O=P(O)(O)O [Pi, phosphate]
[1]
  crystal structure (1.8 Å), open conformation: a phosphate anion coordinated in the distal site by the guanidinium group of R49

## O=P(O)(O)O[C@@H]1O[C@H](CO)[C@@H](O)[C@H](O)[C@H]1O [βG1P, β-glucose 1-phosphate]
[2]
  enzyme kinetics (kcat/Km), G6PDH coupled assay; 31P NMR time course: 0.05 s^–1·μM^–1
[3]
  enzyme kinetics (kcat/Km), G6PDH coupled assay; 31P NMR time course: 0.02 s^–1·μM^–1
[4]
  enzyme kinetics (kcat/Km), G6PDH coupled assay; 31P NMR time course: 0.29 s^–1·μM^–1
